Reference: ChEMBL document CHEMBL1697781, “Assessment of the health effects of chemicals in humans: II. Construction of an adverse effects database for QSAR modeling” (Curr Drug Discov Technol, 2004)

Key:
Conditions in all cases: human; call rule not given here
[1] = system: Hepatotoxicity; test: FDA HLAED, liver enzyme composite activity
[2] = system: Hepatotoxicity; test: FDA HLAED, gamma-glutamyl transferase (GGT) increase
[3] = system: Hepatotoxicity; test: FDA HLAED, lactate dehydrogenase (LDH) increase
[4] = system: Hepatotoxicity; test: FDA HLAED, serum glutamic pyruvic transaminase (SGPT) increase
[5] = system: Hepatotoxicity; test: FDA HLAED, alkaline phosphatase increase
[6] = system: Hepatotoxicity; test: FDA HLAED, serum glutamic oxaloacetic transaminase (SGOT) increase

CCCN1C[C@H](CSC)C[C@@H]2c3cccc4[nH]cc(c34)C[C@H]21 [PERGOLIDE]
Composite Activity - Active [1]: 0 | Composite Activity - Marginal [1]: 0 | Composite Activity - Score [1]: Inactive | GGT Increase - Activity Score [2]: Inactive | GGT Increase - Index Value [2]: 0 | GGT Increase - Number of Reports [2]: < 4 | LDH Increase - Activity Score [3]: Inactive | LDH Increase - Index Value [3]: 0 | LDH Increase - Number of Reports [3]: < 4 | SGPT Increase - Activity Score [4]: Inactive | SGPT Increase - Index Value [4]: 3.9 | SGPT Increase - Number of Reports [4]: < 4 | Alkaline Phosphatase Increase - Activity Score [5]: Inactive | Alkaline Phosphatase Increase - Index Value [5]: 1.3 | Alkaline Phosphatase Increase - Number of Reports [5]: < 4 | SGOT Increase - Activity Score [6]: Inactive | SGOT Increase - Index Value [6]: 3.9 | SGOT Increase - Number of Reports [6]: < 4

COc1ccc(CCN(C)CCCC(C#N)(c2ccc(OC)c(OC)c2)C(C)C)cc1OC (centres undefined)
Composite Activity - Active [1]: 0 | Composite Activity - Marginal [1]: 0 | Composite Activity - Score [1]: Inactive | GGT Increase - Activity Score [2]: Inactive | GGT Increase - Number of Reports [2]: < 4 | LDH Increase - Activity Score [3]: Inactive | LDH Increase - Number of Reports [3]: < 4 | SGPT Increase - Activity Score [4]: Inactive | SGPT Increase - Number of Reports [4]: < 4 | Alkaline Phosphatase Increase - Activity Score [5]: Inactive | Alkaline Phosphatase Increase - Number of Reports [5]: >= 4

O=P1(N(CCCl)CCCl)NCCCO1 (centres undefined) [CYCLOPHOSPHAMIDE ANHYDROUS]
Composite Activity - Active ([1]; Liver): 4 | Composite Activity - Marginal ([1]; Liver): 0 | Composite Activity - Score ([1]; Liver): Active | LDH Increase - Activity Score [3]: Active | LDH Increase - Index Value [3]: 8.5 | LDH Increase - Number of Reports [3]: >= 4 | SGPT Increase - Activity Score [4]: Active | SGPT Increase - Index Value [4]: 8.5 | SGPT Increase - Number of Reports [4]: >= 4 | Alkaline Phosphatase Increase - Activity Score [5]: Active | Alkaline Phosphatase Increase - Index Value [5]: 4.6 | Alkaline Phosphatase Increase - Number of Reports [5]: >= 4 | SGOT Increase - Activity Score [6]: Active | SGOT Increase - Index Value [6]: 8.5 | SGOT Increase - Number of Reports [6]: >= 4

O=NN(CCCl)C(=O)NCCCl [CARMUSTINE]
Composite Activity - Active [1]: 1 | Composite Activity - Marginal [1]: 0 | LDH Increase - Activity Score [3]: Active | LDH Increase - Index Value [3]: 14.6 | LDH Increase - Number of Reports [3]: >= 4

COC1=CC(=O)C[C@@H](C)[C@]12Oc1c(Cl)c(OC)cc(OC)c1C2=O [GRISEOFULVIN]
Composite Activity - Active [1]: 4 | Composite Activity - Marginal [1]: 0 | Composite Activity - Score [1]: Active | GGT Increase - Activity Score [2]: Active | GGT Increase - Index Value [2]: 5.5 | GGT Increase - Number of Reports [2]: < 4 | SGPT Increase - Activity Score [4]: Active | SGPT Increase - Index Value [4]: 6.9 | SGPT Increase - Number of Reports [4]: >= 4 | Alkaline Phosphatase Increase - Activity Score [5]: Active | Alkaline Phosphatase Increase - Index Value [5]: 5.5 | Alkaline Phosphatase Increase - Number of Reports [5]: >= 4 | SGOT Increase - Activity Score [6]: Active | SGOT Increase - Index Value [6]: 5.5 | SGOT Increase - Number of Reports [6]: >= 4

CN(Cc1cnc2nc(N)nc(N)c2n1)c1ccc(C(=O)N[C@@H](CCC(=O)O)C(=O)O)cc1 [METHOTREXATE]
Composite Activity - Active [1]: 2 | Composite Activity - Marginal [1]: 1 | Composite Activity - Score [1]: Active | LDH Increase - Activity Score [3]: Marginally Active | LDH Increase - Index Value [3]: 3.5 | LDH Increase - Number of Reports [3]: >= 4 | SGPT Increase - Activity Score [4]: Active | SGPT Increase - Index Value [4]: 6.4 | SGPT Increase - Number of Reports [4]: >= 4 | SGOT Increase - Activity Score [6]: Active | SGOT Increase - Index Value [6]: 5.3 | SGOT Increase - Number of Reports [6]: >= 4

Oc1ncnc2[nH]ncc12 [ALLOPURINOL]
Composite Activity - Active [1]: 4 | Composite Activity - Marginal [1]: 0 | Composite Activity - Score [1]: Active | GGT Increase - Activity Score [2]: Active | GGT Increase - Index Value [2]: 9.4 | GGT Increase - Number of Reports [2]: >= 4 | SGPT Increase - Activity Score [4]: Active | SGPT Increase - Index Value [4]: 9.4 | SGPT Increase - Number of Reports [4]: >= 4 | Alkaline Phosphatase Increase - Activity Score [5]: Active | Alkaline Phosphatase Increase - Index Value [5]: 4.7 | Alkaline Phosphatase Increase - Number of Reports [5]: >= 4 | SGOT Increase - Activity Score [6]: Active | SGOT Increase - Index Value [6]: 15 | SGOT Increase - Number of Reports [6]: >= 4

O=c1[nH]cc(F)c(=O)[nH]1 [FLUOROURACIL]
Composite Activity - Active [1]: 1 | Composite Activity - Marginal [1]: 1 | LDH Increase - Activity Score [3]: Marginally Active | LDH Increase - Index Value [3]: 3.6 | LDH Increase - Number of Reports [3]: >= 4 | Alkaline Phosphatase Increase - Activity Score [5]: Active | Alkaline Phosphatase Increase - Index Value [5]: 5.5 | Alkaline Phosphatase Increase - Number of Reports [5]: >= 4

Cn1cnc([N+](=O)[O-])c1Sc1ncnc2nc[nH]c12 [AZATHIOPRINE]
Composite Activity - Active ([1]; Liver): 3 | Composite Activity - Marginal ([1]; Liver): 1 | Composite Activity - Score ([1]; Liver): Active | GGT Increase - Activity Score [2]: Marginally Active | GGT Increase - Index Value [2]: 3.3 | GGT Increase - Number of Reports [2]: >= 4 | SGPT Increase - Activity Score [4]: Active | SGPT Increase - Index Value [4]: 5.6 | SGPT Increase - Number of Reports [4]: >= 4 | Alkaline Phosphatase Increase - Activity Score [5]: Active | Alkaline Phosphatase Increase - Index Value [5]: 4.5 | Alkaline Phosphatase Increase - Number of Reports [5]: >= 4 | SGOT Increase - Activity Score [6]: Active | SGOT Increase - Index Value [6]: 5 | SGOT Increase - Number of Reports [6]: >= 4

CC(C)c1nc(CN(C)C(=O)N[C@H](C(=O)N[C@@H](Cc2ccccc2)C[C@H](O)[C@H](Cc2ccccc2)NC(=O)OCc2cncs2)C(C)C)cs1 [RITONAVIR]
GGT Increase - Number of Reports [2]: >= 4 | LDH Increase - Number of Reports [3]: >= 4 | SGPT Increase - Number of Reports [4]: >= 4 | Alkaline Phosphatase Increase - Number of Reports [5]: >= 4 | SGOT Increase - Number of Reports [6]: >= 4

CO[C@H]1/C=C/O[C@@]2(C)Oc3c(C)c(O)c4c(O)c(c(/C=N/N5CCN(C)CC5)c(O)c4c3C2=O)NC(=O)/C(C)=C\C=C\[C@H](C)[C@H](O)[C@@H](C)[C@@H](O)[C@@H](C)[C@H](OC(C)=O)[C@@H]1C [RIFAMPIN]
Composite Activity - Active [1]: 1 | Composite Activity - Marginal [1]: 3 | Composite Activity - Score [1]: Marginally Active | LDH Increase - Activity Score [3]: Marginally Active | LDH Increase - Index Value [3]: No Shipping Units | LDH Increase - Number of Reports [3]: >= 4 | SGPT Increase - Activity Score [4]: Marginally Active | SGPT Increase - Index Value [4]: No Shipping Units | SGPT Increase - Number of Reports [4]: >= 4 | Alkaline Phosphatase Increase - Activity Score [5]: Marginally Active | Alkaline Phosphatase Increase - Index Value [5]: No Shipping Units | Alkaline Phosphatase Increase - Number of Reports [5]: >= 4 | SGOT Increase - Activity Score [6]: Active | SGOT Increase - Index Value [6]: No Shipping Units | SGOT Increase - Number of Reports [6]: >= 4

NC1=NC(=O)C(c2ccccc2)O1 (centres undefined) [PEMOLINE]
Composite Activity - Active [1]: 4 | Composite Activity - Marginal [1]: 0 | Composite Activity - Score [1]: Active | LDH Increase - Activity Score [3]: Active | LDH Increase - Index Value [3]: 6.2 | LDH Increase - Number of Reports [3]: >= 4 | SGPT Increase - Activity Score [4]: Active | SGPT Increase - Index Value [4]: 23.5 | SGPT Increase - Number of Reports [4]: >= 4 | Alkaline Phosphatase Increase - Activity Score [5]: Active | Alkaline Phosphatase Increase - Index Value [5]: 14 | Alkaline Phosphatase Increase - Number of Reports [5]: >= 4 | SGOT Increase - Activity Score [6]: Active | SGOT Increase - Index Value [6]: 22.7 | SGOT Increase - Number of Reports [6]: >= 4
